Assay results as given in US11446378B2, “Inhibitors of ephrin B1 for tumor treatment” (SANFORD HEALTH, priority 2017, dated 2022).

System: PC12 cells
Assay: PC12 neurite outgrowth assay (β-III tubulin quantification by CX7)
Assay type: cell-based, rat
Method: To test our hypothesis that tumor released exosomes induce neo-neurogenesis, we utilized PC12 cells, a rat pheochromocytoma cell line, as an in vitro screen. When stimulated with NGF (100 ng/ml), PC12 cells differentiate into neuron-like cells and extend neurites. We collected 10 ml of blood along with matched tumor tissue from three head and neck cancer patients (patient samples Pt1, Pt2, Pt3). We similarly collected blood from 3 healthy volunteers (Nl1, Nl2, Nl3) as well as adult tonsil tissue (TL). The tonsil was chosen as control tissue since the majority of HPV+ OPSCCs arise in the tonsil. Exosomes were purified, quantified by BCA protein assay and further validated by western blot analysis for the exosome markers CD9 and CD81 (FIG. 1E). To test whether they harbor neurite outgrowth activity, PC12 cells were treated with 3 μg exosomes, fixed 48 hours later and immunostained for β-III tubulin. Neurite outgrowth was quantified using the CellInSight™ CX7 High Content Analysis Platform and the number of neurites compared. The exosome yield from patient Pt1 was low allowing for analysis of only one replicate while quantities from Pt2 and Pt3 were sufficient for technical replicates. […]
The CellInSight CX7 High Content Analysis Platform performs automated cellular imaging for quantitative microscopy which was utilized to quantify neurite outgrowth. […]

With “NGF: recombinant nerve growth factor, positive control for PC12 neurite outgrowth” the “neurite outgrowth (number of β-III tubulin positive neurites)” value (PC12 cells fixed 48 hours after treatment, 3 μg exosomes or NGF 100 ng/ml) was “robustly” and the “neurite outgrowth (total number of beta-III tubulin positive neurites per well)” value (PC12 cells, 24 hour stimulation, recombinant NGF 100 ng/ml set at 100%) was “robust neurite outgrowth”.
